Counter-ions that a name gives are not always drawn. Some results are limits rather than exact numbers.

In the assay the target is T1, human Cav2.2 α (α1B) subunit, along with the human β3 and α2δ1 auxiliary subunits (Homo sapiens, UniProt Q00975).
T1 construct: expressed in transfected cells
T1 sequence (Q00975 whole entry): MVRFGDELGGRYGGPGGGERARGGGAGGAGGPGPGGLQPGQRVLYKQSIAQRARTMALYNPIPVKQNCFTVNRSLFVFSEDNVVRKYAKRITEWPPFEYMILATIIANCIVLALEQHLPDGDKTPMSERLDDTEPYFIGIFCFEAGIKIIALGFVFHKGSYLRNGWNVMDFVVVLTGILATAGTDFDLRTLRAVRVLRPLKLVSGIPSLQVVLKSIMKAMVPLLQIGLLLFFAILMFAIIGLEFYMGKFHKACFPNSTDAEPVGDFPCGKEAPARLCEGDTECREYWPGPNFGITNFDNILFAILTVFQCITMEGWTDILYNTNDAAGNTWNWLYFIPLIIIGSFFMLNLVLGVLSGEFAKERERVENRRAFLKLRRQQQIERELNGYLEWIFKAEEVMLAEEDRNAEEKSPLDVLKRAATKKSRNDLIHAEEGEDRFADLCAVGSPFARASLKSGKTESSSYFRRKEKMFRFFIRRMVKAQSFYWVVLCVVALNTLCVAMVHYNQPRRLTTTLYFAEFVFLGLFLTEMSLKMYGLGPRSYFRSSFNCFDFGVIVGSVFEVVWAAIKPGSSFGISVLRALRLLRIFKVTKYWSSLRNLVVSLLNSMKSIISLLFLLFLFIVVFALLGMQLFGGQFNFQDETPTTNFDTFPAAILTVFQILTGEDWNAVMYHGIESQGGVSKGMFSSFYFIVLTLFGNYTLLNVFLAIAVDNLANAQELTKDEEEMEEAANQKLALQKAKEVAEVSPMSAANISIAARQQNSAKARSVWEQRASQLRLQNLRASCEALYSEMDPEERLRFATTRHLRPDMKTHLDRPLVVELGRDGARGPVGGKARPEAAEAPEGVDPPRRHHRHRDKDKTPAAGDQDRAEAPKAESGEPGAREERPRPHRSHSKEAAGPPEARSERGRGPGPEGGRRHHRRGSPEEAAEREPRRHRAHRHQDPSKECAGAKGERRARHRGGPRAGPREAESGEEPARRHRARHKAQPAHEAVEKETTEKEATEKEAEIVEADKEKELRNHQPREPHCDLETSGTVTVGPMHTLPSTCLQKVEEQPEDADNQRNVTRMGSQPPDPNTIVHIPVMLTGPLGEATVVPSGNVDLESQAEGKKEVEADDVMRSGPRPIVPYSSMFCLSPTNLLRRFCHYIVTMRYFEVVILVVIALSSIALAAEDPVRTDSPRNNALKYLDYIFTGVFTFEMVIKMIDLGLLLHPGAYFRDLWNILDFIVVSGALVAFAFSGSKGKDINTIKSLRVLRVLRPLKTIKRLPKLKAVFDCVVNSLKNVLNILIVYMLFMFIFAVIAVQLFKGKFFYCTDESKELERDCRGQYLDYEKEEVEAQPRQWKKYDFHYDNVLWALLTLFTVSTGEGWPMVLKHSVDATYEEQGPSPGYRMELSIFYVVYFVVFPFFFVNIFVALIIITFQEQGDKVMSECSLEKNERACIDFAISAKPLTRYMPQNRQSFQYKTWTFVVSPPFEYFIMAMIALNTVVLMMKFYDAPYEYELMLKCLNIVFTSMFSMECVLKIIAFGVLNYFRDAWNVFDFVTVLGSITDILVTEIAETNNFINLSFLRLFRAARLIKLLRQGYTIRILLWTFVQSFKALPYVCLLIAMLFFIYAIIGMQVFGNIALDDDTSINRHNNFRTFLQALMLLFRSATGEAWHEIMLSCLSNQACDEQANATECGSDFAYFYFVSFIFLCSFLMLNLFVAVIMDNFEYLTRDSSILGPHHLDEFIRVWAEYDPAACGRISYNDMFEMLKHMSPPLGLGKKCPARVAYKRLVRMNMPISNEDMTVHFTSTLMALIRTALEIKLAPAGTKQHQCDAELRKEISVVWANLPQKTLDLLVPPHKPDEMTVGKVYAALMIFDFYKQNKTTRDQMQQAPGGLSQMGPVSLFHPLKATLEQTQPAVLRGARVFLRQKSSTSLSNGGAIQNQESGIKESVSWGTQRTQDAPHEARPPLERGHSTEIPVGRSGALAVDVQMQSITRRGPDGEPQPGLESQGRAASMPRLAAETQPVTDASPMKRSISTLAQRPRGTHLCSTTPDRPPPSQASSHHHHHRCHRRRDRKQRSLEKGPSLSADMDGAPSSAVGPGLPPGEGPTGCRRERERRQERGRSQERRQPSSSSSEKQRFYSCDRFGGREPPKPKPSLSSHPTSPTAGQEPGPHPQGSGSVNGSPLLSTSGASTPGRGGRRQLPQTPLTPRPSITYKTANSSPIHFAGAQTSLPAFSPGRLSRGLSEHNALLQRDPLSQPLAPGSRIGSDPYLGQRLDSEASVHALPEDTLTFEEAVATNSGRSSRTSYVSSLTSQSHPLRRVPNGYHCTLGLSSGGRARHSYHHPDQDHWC
T1 sequence (P54284 whole entry partner): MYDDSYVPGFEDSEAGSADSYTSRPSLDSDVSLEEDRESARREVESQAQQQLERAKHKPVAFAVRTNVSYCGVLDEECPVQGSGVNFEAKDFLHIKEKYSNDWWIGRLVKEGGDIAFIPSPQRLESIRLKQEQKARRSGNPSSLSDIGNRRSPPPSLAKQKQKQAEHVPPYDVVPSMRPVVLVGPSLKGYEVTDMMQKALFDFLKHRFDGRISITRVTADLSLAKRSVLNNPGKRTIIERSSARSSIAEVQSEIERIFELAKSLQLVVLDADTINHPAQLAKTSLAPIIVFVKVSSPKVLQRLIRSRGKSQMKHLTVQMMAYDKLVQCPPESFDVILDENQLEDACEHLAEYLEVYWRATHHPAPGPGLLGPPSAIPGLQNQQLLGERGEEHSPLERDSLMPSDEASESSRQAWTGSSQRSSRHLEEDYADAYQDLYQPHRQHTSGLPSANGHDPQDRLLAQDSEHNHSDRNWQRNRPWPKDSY
T1 sequence (P54289 25-946 partner limits assumed): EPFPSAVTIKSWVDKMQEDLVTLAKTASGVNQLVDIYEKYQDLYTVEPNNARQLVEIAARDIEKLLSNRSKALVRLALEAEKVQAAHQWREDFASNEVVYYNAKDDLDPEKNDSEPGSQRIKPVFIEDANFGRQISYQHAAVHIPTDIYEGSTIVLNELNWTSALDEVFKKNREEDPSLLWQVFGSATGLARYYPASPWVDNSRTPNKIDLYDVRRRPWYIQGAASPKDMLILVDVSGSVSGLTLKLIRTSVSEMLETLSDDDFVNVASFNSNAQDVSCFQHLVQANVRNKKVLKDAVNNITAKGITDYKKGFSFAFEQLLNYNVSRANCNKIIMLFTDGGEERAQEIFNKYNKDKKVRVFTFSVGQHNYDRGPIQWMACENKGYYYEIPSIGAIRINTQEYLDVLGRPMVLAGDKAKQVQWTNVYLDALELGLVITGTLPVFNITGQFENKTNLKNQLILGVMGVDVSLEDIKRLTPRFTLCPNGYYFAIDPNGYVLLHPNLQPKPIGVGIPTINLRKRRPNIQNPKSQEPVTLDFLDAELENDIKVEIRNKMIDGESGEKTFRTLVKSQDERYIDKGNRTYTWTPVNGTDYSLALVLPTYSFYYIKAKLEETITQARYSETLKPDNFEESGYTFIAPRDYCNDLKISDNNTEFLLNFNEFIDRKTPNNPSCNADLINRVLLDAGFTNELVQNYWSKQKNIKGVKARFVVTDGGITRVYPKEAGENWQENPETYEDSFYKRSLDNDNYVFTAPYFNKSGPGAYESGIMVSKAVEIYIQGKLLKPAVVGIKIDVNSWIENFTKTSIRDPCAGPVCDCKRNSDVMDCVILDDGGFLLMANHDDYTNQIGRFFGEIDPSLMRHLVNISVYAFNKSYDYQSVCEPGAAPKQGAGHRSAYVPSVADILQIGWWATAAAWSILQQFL
T1 sequence (P54289 947-1103 partner limits assumed): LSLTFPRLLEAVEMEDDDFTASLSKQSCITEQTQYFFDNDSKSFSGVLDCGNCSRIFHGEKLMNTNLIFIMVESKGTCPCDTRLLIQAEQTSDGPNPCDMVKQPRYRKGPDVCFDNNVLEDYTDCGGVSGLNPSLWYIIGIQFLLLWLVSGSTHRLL
The experiment in a line: hCav2.2 assay, IonWorks planar array electrophysiology in stable HEK293 cell line. The assay is classed as cell-based. Conditions: inhibition by 50% of current elicited by the 1st depolarising pulse; HEK293 cells; read-out: tonic pIC50 (converted). The protocol: Compounds as defined in the first or second aspect may be tested for in vitro biological activity in the hCav2.2 assay in accordance with the following studies:
Stable cell lines expressing the human Cav2.2 α (α1B) subunit, along with the human β3 and α2δ1 auxiliary subunits were created following sequential transfection and selection of human embryonic kidney (HEK293) cells. HEK293 cells were cultured in Dulbecco's modified Eagles media/F12 media (Invitrogen, Cat #041-95750V) containing 10% fetal bovine serum, with added L-glutamine (2 mM; Invitrogen, Cat #25030-024) and non-essential amino acids (5%; Invitrogen, Cat #11140-035). Initially HEK293 cells were transfected with two plasmid vectors for expression of the hCav2.2 α subunit (pCIN5-hCav2.2 which carries a neomycin resistance marker) and the hCav β3 subunit (pCIH-hCav β3 which carries a hygromycin resistance marker). Clonal cell lines were isolated following selection in media supplemented with 0.4 mg ml^−1 Geneticin G418 (Invitrogen, Cat #10131-027) and 0.1 mg ml^−1 hygromycin (Invitrogen, Cat #10687-010). These clonal cell lines were assessed for Cav2.2 α/β3-mediated current expression using the IonWorks planar array electrophysiology technology (described below). A clonal line was identified that gave a reasonable level of functional Cav2.2 α/β3 current expression. This cell line was transfected with a plasmid vector for expression of the human α2δ1 subunit (pCIP-α2δ1 which carries a puromycin resistance marker) and clonal cell lines isolated following selection in media containing 0.62 μg ml^−1 puromycin (Sigma, Cat #P-7255), in addition to 0.4 mg ml^−1 Geneticin G418 and 0.1 mg ml^−1 hygromycin. Several cell lines were identified that gave robust levels of Cav2.2 α/β3/α2δ1-mediated current expression and one of these was selected for compound profiling. Expression of all three subunits within this cell line was continuously maintained by the inclusion of G418 (0.4 mg ml^−1), hygromycin (0.1 mg ml^−1) and puromycin (0.62 μg ml^−1). Cells were maintained at 37° C. in a humidified environment containing 5% CO2 in air. Cells were liberated from the T175 culture flasks for passage and harvesting using TrpLE (Invitrogen, Cat #12604-013).
Cells were grown to 30-60% confluence in T175 flasks and maintained at 30° C. for 24 hrs prior to recording. Cells were lifted by removing the growth media, washing with Ca^2+ free PBS (Invitrogen, Cat #14190-094) and incubating with 3 ml of warmed (37° C.) TrpLE (Invitrogen, Cat #12604-013) for 6 minutes. Lifted cells were suspended in 10 ml of extracellular buffer. Cell suspension was then placed into a 15 ml tube and centrifuged for 2 minutes at 700 rpm. After centrifugation, the supernatant was removed and the cell pellet was resuspended in 4.5 ml of extracellular solution.
Currents were recorded at room temperature (21-23° C.) using the IonWorks planar array electrophysiology technology (Molecular Devices Corp.). Stimulation protocols and data acquisition were carried out using a microcomputer (Dell Pentium 4). In order to determine planar electrode hole resistances (Rp), a 10 mV, 160 ms potential difference was applied across each hole. These measurements were performed before cell addition. After cell addition a seal test was performed prior to antibiotic (amphotericin) circulation to achieve intracellular access. Leak subtraction was conducted in all experiments by applying a 160 ms hyperpolarizing (10 mV) prepulse 200 ms before the test pulses to measure leak conductance. Test pulses stepping from the holding potential (VH) of −90 mV to +10 mV were applied for 20 ms and repeated 10 times at a frequency of 10 Hz. In all experiments, the test pulse protocol was performed in the absence (pre-read) and presence (post-read) of a compound. Pre- and post-reads were separated by a compound addition followed by a 3-3.5 min incubation. […]
On the technique in general: Patch clamp records ionic current or voltage across a cell membrane.
As for `FCC12CCCN1CCN(Cc1nnnn1-c1ccc(C(F)(F)F)cc1)C2` (stereo not drawn) [Compound 77, 8a-(Fluoromethyl)-2-({1-[4-(trifluoromethyl)phenyl]-1H-tetrazol-5-yl}methyl)octahydropyrrolo[1,2-a]pyrazine], the IC50 was no more than 31.6 µM.
Next, `O=S1(=O)CCC2CN(Cc3nnnn3-c3ccc(C(F)(F)F)cc3)CCN21` (stereo not drawn) [Compound 78, 5-({1-[4-(Trifluoromethyl)phenyl]-1H-tetrazol-5-yl}methyl)hexahydro-2H-isothiazole[2,3-a]pyrazine 1,1-dioxide]: no more than 31.6 µM.
Take `O=S1(=O)CCC2CN(Cc3nnnn3-c3cccc(C(F)(F)F)c3)CCN21` (stereo not drawn) [Compound 79, 5-({1-[3-(Trifluoromethyl)phenyl]-1H-tetrazol-5-yl}methyl)hexahydro-2H-isothiazolo[2,3-a]pyrazine 1,1-dioxide]: the IC50 was no more than 31.6 µM.
Turning to `C[C@@H]1C(=O)N(C)CCN1Cc1nnnn1-c1ccc(C(F)(F)F)cc1` [Compound 89, (3R)-1,3-Dimethyl-4-({1-[4-(trifluoromethyl)phenyl]-1H-tetrazol-5-yl}methyl)-2-piperazinone[]], the IC50 was no more than 10 µM.
Consider `CC(C)N1CCN(Cc2nnnn2-c2ccc(C(F)(F)F)cc2)[C@H](C)C1=O` [Compound 90, (3R)-3-Methyl-1-(1-methylethyl)-4-({1-[4-(trifluoromethyl)phenyl]-1H-tetrazol-5-yl}methyl)-2-piperazinone], for which the IC50 is no more than 10 µM.
Next, `CCN1CCN(Cc2nnnn2-c2cccc(C(F)(F)F)c2)[C@H](C)C1` [Compound 92, (2R)-4-Ethyl-2-methyl,-1-({1-[3-(trifluoromethyl)phenyl]-1H-tetrazol-5-yl}methyl)piperazine hydrochloride]: no more than 31.6 µM; `CC(C)N1CCN(Cc2nnnn2-c2cccc(C(F)(F)F)c2)[C@H](C)C1` [Compound 94, (2R)-2-Methyl-4-(1-methylethyl)-1-({1-[3-(trifluoromethyl)phenyl]-1H-tetrazol-5-yl}methyl)piperazine hydrochloride]: no more than 31.6 µM.
With `CC(C)N1CCN(Cc2nnnn2-c2ccc(C(F)(F)F)cc2)CC1` [Compound 96, 1-(1-Methylethyl)-4-({1-[4-(trifluoromethyl)phenyl]-1H-tetrazol-5-yl}methyl)piperazine hydrochloride], the IC50 was no more than 31.6 µM.
`CN1C[C@@H]2C[C@H]1CN2Cc1nnnn1-c1ccc(C(F)(F)F)cc1` [Compound 98, (1S,4S)-2-Methyl-5-({1-[4-(trifluoromethyl)phenyl]-1H-tetrazol-5-yl}methyl)-2,5-diazabicyclo[2.2.1]heptane hydrochloride]: the IC50 was no more than 31.6 µM.
In the case of `N#Cc1ccc(-n2nnnc2CN2CCNCC2)cc1C(F)(F)F` [Compound 101, 4-[5-(1-piperazinylmethyl)-1H-tetrazol-1-yl]-2-(trifluoromethyl)benzonitrile], the IC50 is no more than 10 µM.
As for `CC(=O)N1CCN(Cc2nnnn2-c2ccc(C#N)c(C(F)(F)F)c2)CC1` [Compound 102, 4-{5-[(4-acetyl-1-piperazinyl)methyl]-1H-tetrazol-1-yl}-2-(trifluoromethyl)benzonitrile], the IC50 was no more than 3.16 µM.
Next, `N#Cc1ccc(-n2nnnc2CN2[C@@H]3CC[C@H]2COC3)cc1C(F)(F)F` [Compound 103, 4-[5-(3-oxa-8-azabicyclo[3.2.1]oct-8-ylmethyl)-1H-tetrazol-1-yl]-2-(trifluoromethyl)benzonitrile hydrochloride]: no more than 10 µM; `CCCS(=O)(=O)N1CCN(Cc2nnnn2-c2ccc(C#N)c(C(F)(F)F)c2)CC1` [Compound 106, 4-(5-{[4-(Propylsulfonyl)-1-piperazinyl]methyl}-1H-tetrazol-1-yl)-2-(trifluoromethyl)benzonitrile]: no more than 3.16 µM.
For `C[C@@H]1CN(S(C)(=O)=O)C[C@H](C)N1Cc1nnnn1-c1ccc(C#N)c(C(F)(F)F)c1` [Compound 107, 4-(5-{[cis-2,6-Dimethyl-4-(methylsulfonyl)-1-piperazinyl]methyl}-1H-tetrazol-1-yl)-2-(trifluoromethyl)benzonitrile] the value was no more than 3.16 µM; for `FC(F)(F)c1cc(-n2nnnc2CN2C[C@@H]3C[C@H]2CO3)ccc1Cl` [Compound 110, (1S,4S)-5-({1-[4-chloro-3-(trifluoromethyl)phenyl]-1H-tetrazol-5-yl}methyl)-2-oxa-5-azabicyclo[2.2.1]heptane hydrochloride], no more than 10 µM.
On to `FC(F)(F)c1cc(-n2nnnc2CN2CCOCC2)ccc1Cl` [Compound 111, 4-({1-[4-chloro-3-(trifluoromethyl)phenyl]-1H-tetrazol-5-yl}methyl)morpholine], for which the IC50 is no more than 3.16 µM.
In the case of `CCS(=O)(=O)N1CCN(Cc2nnnn2-c2ccc(C#N)cc2)CC1` [Compound 118, 4-(5-{[4-(ethylsulfonyl)-1-piperazinyl]methyl}-1H-tetrazol-1-yl)benzonitrile], the IC50 is no more than 31.6 µM.
Turning to `CCS(=O)(=O)N1CCN(Cc2nnnn2-c2ccc(C#N)c(C(F)(F)F)c2)CC1` [Compound 121, 4-(5-{[4-(ethylsulfonyl)-1-piperazinyl]methyl}-1H-tetrazol-1-yl)-2-(trifluoromethyl)benzonitrile], the IC50 is no more than 3.16 µM.
Take `CC(C)S(=O)(=O)N1CCN(Cc2nnnn2-c2ccc(C#N)c(C(F)(F)F)c2)CC1` [Compound 122, 4-[5-({4-[(1-methylethyl)sulfonyl]-1-piperazinyl}methyl)-1H-tetrazol-1-yl]-2-(trifluoromethyl)benzonitrile]: the IC50 was no more than 3.16 µM.
For `FS(F)(F)(F)(F)c1ccc(-n2nnnc2CN2C[C@@H]3C[C@H]2CO3)cc1` [Compound 127, (1S,4S)-5-({1-[4-(pentafluoro-λ^6-sulfanyl)phenyl]-1H-tetrazol-5-yl}methyl)-2-oxa-5-azabicyclo[2.2.1]heptane], the IC50 was no more than 31.6 µM.
Next, `Cc1c(-n2nnnc2CN2C[C@@H]3C[C@H]2CO3)ccc(C#N)c1C(F)(F)F` [Compound 129, 3-methyl-4-{5-[(1S,4S)-2-oxa-5-azabicyclo[2.2.1]hept-5-ylmethyl]-1H-tetrazol-1-yl}-2-(trifluoromethyl)bbenzonitrile hydrochloride]: no more than 31.6 µM; `CCC(=O)N1CCN(Cc2nnnn2-c2ccc(C#N)c(C(F)(F)F)c2)CC1` [Compound 145, 4-{5-[(4-propanoyl-1-piperazinyl)methyl]-1H-tetrazol-1-yl}-2-(trifluoromethyl)benzonitrile]: no more than 3.16 µM; `CC(C)C(=O)N1CCN(Cc2nnnn2-c2ccc(C#N)c(C(F)(F)F)c2)CC1` [Compound 146, 4-(5-{[4-(2-methylpropanoyl)-1-piperazinyl]methyl}-1H-tetrazol-1-yl)-2-(trifluoromethyl)benzonitrile]: no more than 3.16 µM.
For `CC(C)N1CCC2(CCN(Cc3nnnn3-c3ccc(C#N)c(C(F)(F)F)c3)CC2)C1` [Compound 147, 4-(5-{[2-(1-methylethyl)-2,8-diazaspiro[4.5]dec-8-yl]methyl}-1H-tetrazol-1-yl)-2-(trifluoromethyl)benzonitrile dihydrochloride] the value was no more than 3.16 µM.
